Here are results for 1 compound from publication PMC4222822, “Discovery and Characterization of a Potent and Selective Inhibitor of Aedes aegypti Inward Rectifier Potassium Channels” (PLoS ONE, 2014).

Read-outs that look alike come from different tables or passages of the source.

The target of one experiment is AeKir1 (Aedes aegypti, UniProt L0EQS9). Briefly: Tl+ flux assay in T-REx-HEK293-AeKir1 cells. In kind it is cell-based. Here is the method: Tl^+ flux assays were performed essentially as described previously, [18], [19]. Briefly, stably transfected T-Rex-HEK-293 cells expressing AeKir1 channels were cultured overnight in 384-well plates (20,000 cells/20 µL/well black-walled, clear-bottomed BD PureCoat amine-coated plates (BD, Bedford, MA) with a plating media containing DMEM, 10% dialyzed FBS and 1 µg/mL tetracycline. The next day, the cell culture medium was replaced with a dye-loading solution containing assay buffer (Hanks Balanced Salt Solution with 20 mM HEPES, pH 7.3), 0.01% (w/v) Pluronic F-127 (Life Technologies, Carlsbad, CA), and 1.2 µM of the thallium-sensitive dye Thallos-AM (TEFlabs, Austin, TX). Following 1 hr incubation at room temperature, the dye-loading solution was washed from the plates and replaced with 20 µL/well of assay buffer. The plates were transferred to a Hamamatsu Functional Drug Screening System 6000 (FDSS6000; Hamamatsu, Hamamatsu (or Bridgewater, NJ), Japan) where 20 µL/well of test compounds in assay buffer (as prepared below) were added and allowed to incubate with the cells for 20 min. After the incubation period, a baseline recording was collected at 1 Hz for 10 s (excitation 470±20 nm, emission 540±30 nm) followed by a Tl^+ stimulus buffer addition (10 µL/well) and data collection for an additional 4 min. The Tl^+ stimulus buffer contains in (mM) 125 NaHCO3, 1.8 CaSO4, 1 MgSO4, 5 glucose, 12 Tl2SO4, 10 HEPES, pH 7.4. For Tl^+ flux assays on the mammalian channels Kir2.x, Kir4.1 and Kir6.2/SUR1 expressing cells, the Tl^+ stimulus buffer contained 1.8 mM Tl2SO4. Also, Tl^+ flux assays on Kir3.1/3.2/mGlu8 expressing cell, required addition of an EC80 concentration of glutamate (Sigma-Aldrich, St. Louis, MO) with the Tl^+ stimulus buffer. The test compounds were transferred to daughter polypropylene 384-well plates (Greiner Bio-One, Monroe, NC) using an Echo555 liquid handler (Labcyte, Sunnyvale, CA), and then diluted into assay buffer to generate a 2X stock in 0.6% DMSO (0.3% final). For Tl^+ flux assays on Kir6.2/SUR1 expressing cells, test compounds were diluted in assay buffer containing diazoxide (250 µM final) to induce channel activation. Concentration-response curves (CRCs) were generated by screening compounds at 3-fold dilution series in 4-point (1 µM–30 µM) or 11-point (1 nM–30 µM) CRCs. Tl^+ flux data were analyzed as previously described, [21], [22] using a combination of Excel (Microsoft Corp, Redmond, WA) with XLfit add-in (IDBS, Guildford, Surrey, UK) and OriginPro (OriginLab, Northampton, MA) software. Raw data were opened in Excel and each data point in a given trace was divided by the first data point from that trace (static ratio) followed by subtraction of data points from control traces generated in the presence of vehicle controls. The slope of the fluorescence increase beginning 5 s after Tl^+ addition and ending 15 s after Tl^+ addition was calculated. To compare the effect of DMSO on AeKir1-mediated Tl^+ flux, a one-way ANOVA was performed with a Tukey's multiple comparison test. Prism software (GraphPad Software) was used to generate CRC from Tl^+ flux. Half-inhibition concentration (IC50) values were calculated from fits using a four parameter logistic equation.

The target of the next experiment is T1, Kir6.2/SUR1 (Homo sapiens, UniProt Q14654).
T1 construct: expressed in transfected cells
Nature of the experiment: Tl+ flux selectivity assay, Kir6.2/SUR1. In kind it is cell-based. The conditions noted are these: Kir6.2/SUR1, diazoxide 250 µM; n = 2 independent experiments in triplicate; read-out: Inhibition of Tl+ flux (IC50). Here is the method: [Worded in the source for another target; used here, by the source, with some conditions changed.] Tl^+ flux assays were performed essentially as described previously, [18], [19]. Briefly, stably transfected T-Rex-HEK-293 cells expressing AeKir1 channels were cultured overnight in 384-well plates (20,000 cells/20 µL/well black-walled, clear-bottomed BD PureCoat amine-coated plates (BD, Bedford, MA) with a plating media containing DMEM, 10% dialyzed FBS and 1 µg/mL tetracycline. The next day, the cell culture medium was replaced with a dye-loading solution containing assay buffer (Hanks Balanced Salt Solution with 20 mM HEPES, pH 7.3), 0.01% (w/v) Pluronic F-127 (Life Technologies, Carlsbad, CA), and 1.2 µM of the thallium-sensitive dye Thallos-AM (TEFlabs, Austin, TX). Following 1 hr incubation at room temperature, the dye-loading solution was washed from the plates and replaced with 20 µL/well of assay buffer. […] Tl^+ flux data were analyzed as previously described, [21], [22] using a combination of Excel (Microsoft Corp, Redmond, WA) with XLfit add-in (IDBS, Guildford, Surrey, UK) and OriginPro (OriginLab, Northampton, MA) software. […] The slope of the fluorescence increase beginning 5 s after Tl^+ addition and ending 15 s after Tl^+ addition was calculated.

For experiment [1], the system named is 68 mammalian GPCR's, ion channels, and transporters. Briefly: Radioligand displacement assays, panel of 68 targets. In kind it is binding. The settings on record: 10 µM, active defined as >50% ligand displacement. On the technique in general: In a radioligand displacement assay an active substance lowers the binding of a labelled ligand.

Sequence of AeKir1 (L0EQS9 entry or part of it): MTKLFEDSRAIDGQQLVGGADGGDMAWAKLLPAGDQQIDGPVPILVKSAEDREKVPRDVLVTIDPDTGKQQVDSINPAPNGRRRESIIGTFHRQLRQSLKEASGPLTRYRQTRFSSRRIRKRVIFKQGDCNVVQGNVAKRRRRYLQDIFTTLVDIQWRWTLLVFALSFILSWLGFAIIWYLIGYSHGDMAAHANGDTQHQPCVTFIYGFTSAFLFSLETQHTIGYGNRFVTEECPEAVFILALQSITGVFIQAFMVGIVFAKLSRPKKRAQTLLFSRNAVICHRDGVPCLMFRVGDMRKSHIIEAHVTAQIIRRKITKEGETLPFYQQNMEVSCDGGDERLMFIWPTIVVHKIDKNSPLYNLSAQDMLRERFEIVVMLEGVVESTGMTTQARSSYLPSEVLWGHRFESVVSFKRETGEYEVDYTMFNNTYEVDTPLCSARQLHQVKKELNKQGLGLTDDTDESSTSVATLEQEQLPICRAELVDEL
T1 sequence (Q14654 whole entry): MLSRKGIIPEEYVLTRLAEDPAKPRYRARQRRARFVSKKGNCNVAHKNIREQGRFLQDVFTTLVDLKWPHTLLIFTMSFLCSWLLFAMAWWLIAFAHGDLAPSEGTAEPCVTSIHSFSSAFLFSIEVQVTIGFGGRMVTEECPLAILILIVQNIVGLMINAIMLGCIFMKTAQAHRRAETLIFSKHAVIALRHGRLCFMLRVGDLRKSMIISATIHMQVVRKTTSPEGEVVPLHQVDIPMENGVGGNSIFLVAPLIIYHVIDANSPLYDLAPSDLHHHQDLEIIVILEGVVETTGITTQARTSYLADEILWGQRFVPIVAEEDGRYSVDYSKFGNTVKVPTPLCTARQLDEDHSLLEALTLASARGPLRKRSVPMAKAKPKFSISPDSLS
T1 sequence (Q09428 whole entry partner): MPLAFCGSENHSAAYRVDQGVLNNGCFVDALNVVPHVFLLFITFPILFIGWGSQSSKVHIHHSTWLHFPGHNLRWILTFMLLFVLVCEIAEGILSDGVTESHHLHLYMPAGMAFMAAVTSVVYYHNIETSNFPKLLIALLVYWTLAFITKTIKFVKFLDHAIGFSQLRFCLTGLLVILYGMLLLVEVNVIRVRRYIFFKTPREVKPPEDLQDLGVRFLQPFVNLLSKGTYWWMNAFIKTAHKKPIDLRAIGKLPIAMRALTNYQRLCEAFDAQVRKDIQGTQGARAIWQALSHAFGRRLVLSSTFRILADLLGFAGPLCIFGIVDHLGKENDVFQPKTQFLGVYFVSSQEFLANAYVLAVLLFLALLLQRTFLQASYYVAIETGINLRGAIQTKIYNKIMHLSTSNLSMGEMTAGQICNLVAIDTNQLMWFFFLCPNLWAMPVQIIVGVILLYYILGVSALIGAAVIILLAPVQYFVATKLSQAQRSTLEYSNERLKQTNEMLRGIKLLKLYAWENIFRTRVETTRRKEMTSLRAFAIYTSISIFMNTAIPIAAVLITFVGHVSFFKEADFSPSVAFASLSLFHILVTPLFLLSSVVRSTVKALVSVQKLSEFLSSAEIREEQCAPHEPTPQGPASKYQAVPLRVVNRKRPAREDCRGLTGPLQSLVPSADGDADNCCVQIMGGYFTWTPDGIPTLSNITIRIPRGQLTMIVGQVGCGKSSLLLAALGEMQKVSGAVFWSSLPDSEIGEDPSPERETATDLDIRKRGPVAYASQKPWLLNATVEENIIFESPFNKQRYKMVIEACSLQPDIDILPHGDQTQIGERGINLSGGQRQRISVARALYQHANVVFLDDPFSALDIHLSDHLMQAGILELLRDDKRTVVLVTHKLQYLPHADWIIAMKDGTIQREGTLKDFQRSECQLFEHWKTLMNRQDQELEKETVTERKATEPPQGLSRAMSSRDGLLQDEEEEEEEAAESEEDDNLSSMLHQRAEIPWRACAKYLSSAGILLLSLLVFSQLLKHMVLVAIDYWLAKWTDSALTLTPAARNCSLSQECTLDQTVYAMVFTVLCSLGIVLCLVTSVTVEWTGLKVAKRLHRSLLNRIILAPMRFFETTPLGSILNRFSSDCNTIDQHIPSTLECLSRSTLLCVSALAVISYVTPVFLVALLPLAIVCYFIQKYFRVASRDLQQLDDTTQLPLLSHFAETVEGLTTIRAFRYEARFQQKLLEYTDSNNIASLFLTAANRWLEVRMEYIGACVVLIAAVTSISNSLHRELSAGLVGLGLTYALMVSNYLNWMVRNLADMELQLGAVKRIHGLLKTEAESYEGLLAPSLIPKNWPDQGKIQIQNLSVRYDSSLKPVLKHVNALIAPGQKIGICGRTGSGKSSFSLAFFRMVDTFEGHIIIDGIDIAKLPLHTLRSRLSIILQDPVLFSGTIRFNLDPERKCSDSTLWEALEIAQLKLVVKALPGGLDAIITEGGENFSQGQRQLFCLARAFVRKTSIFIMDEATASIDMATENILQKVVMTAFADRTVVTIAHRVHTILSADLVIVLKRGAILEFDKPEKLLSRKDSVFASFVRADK

What is called IC50 is the midpoint of a concentration-inhibition curve. On to `CCC(=O)N1c2ccc(S(=O)(=O)Nc3cccc(OC)c3)cc2CC1C` (stereo not shown) [VU625, N-(3-methoxyphenyl)-2-methyl-1-propionylindoline-5-sulfonamide], for which the concentration for half-maximal inhibition (IC50) at AeKir1 (11-point CRCs, 95% CI: 0.25–0.39 µM, read-out: IC50 (AeKir1, Tl+ flux)) is 0.32 µM; on AeKir1 (Fig. 2C, 95% CI: 254.4–390.2 nM, n = 4 independent experiments in triplicate, read-out: IC50 (AeKir1, Tl+ flux)), 0.315 µM; at AeKir1 (Table 2, southern amide SAR, 11-point CRCs on AeKir1 in Tl+ flux, triplicate on two separate days, read-out: IC50±SEM), 0.36 ± 0.02 µM; at AeKir1 (Table S3, left-hand sulfonamide SAR, 11-point CRCs on AeKir1 in Tl+ flux, triplicate on two separate days, read-out: IC50), 0.856 µM; on Kir6.2/SUR1, over 30 µM. Also, the “Hill coefficient (nH)” value on AeKir1 (Tl+ flux CRC, 95% CI: 0.8–1.2) is recorded as 0.98. Besides, the “activity in radioligand displacement panel” value in experiment [1] is on record as “against only three targets”.
